Measurements published in patent publication US20050019825A9, “Common ligand mimics: pseudothiohydantoins” (priority 2002, published 2005).

Assays:
[1] = biological target: T1, HMG CoA reductase (HMGCoAR) (UniProt P04035); assay: HMGCoAR kinetic assay, spectrophotometric oxidation of NADPH (340 nm); assay type: biochemical; conditions: for IC50: common ligand mimics, Examples 23/24
T1 sequence (P04035 1-888): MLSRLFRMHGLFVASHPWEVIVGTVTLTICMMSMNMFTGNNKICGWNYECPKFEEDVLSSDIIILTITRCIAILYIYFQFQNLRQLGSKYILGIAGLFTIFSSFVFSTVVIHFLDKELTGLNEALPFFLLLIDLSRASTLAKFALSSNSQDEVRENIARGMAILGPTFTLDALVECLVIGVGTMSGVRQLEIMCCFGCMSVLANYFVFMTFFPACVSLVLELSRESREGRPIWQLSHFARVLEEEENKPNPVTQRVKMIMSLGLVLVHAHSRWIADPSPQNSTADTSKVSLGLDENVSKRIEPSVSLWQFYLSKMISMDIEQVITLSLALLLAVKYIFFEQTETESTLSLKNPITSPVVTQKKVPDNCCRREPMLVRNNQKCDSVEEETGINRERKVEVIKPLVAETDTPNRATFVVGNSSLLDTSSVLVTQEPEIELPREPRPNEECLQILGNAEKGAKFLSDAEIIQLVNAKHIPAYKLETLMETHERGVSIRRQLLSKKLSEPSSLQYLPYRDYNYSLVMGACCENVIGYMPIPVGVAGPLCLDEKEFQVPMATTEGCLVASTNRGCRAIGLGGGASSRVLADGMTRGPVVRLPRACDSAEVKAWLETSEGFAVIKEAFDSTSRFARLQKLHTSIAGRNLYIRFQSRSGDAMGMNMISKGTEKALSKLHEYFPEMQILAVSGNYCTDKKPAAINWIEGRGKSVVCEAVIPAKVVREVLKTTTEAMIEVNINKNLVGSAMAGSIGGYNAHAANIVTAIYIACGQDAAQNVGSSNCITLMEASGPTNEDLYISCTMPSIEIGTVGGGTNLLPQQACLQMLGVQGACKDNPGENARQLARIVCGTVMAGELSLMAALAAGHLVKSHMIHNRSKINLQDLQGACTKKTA
Method: For HMGCoAR analysis, the compounds were screened using a kinetic protocol that spectrophotometrically evaluates oxidation of NADPH.
Stock solutions of each of the reagents were prepared in the following concentrations. Dilutions of the stock solutions were prepared prior to running the assay in the concentrations indicated below. The enzyme was diluted in 1 M NaCl. To prepare the dilution buffer, 10 μl of HMGCoAR (1 mg/ml) was mixed with 133 μl of 3 M NaCl solution and 257 μl of 25 mM KH2PO4 buffer (pH 7.5; containing 50 mM NaCl, […] EDTA (ethylenediaminetetraacetic acid), and 5 mM DTT (dithiothreitol).
The HMGCoAR reaction was monitored at 340 nm prior to and after addition of the inhibitor to detect background reaction with the inhibitor. Solutions of 100 μM of the inhibitors in DMSO were prepared to provide a final DMSO concentration of 2% of the total assay volume. These solutions were incubated for 6 minutes at 25° C. in a 994 μl of a solution containing 25 mM KH2PO4, pH 7.5, 160 μM HMGCoA, 13 μM NADPH, 50 mM NaCl, 1 mM EDTA, and 5 mM DTT. The reaction was then initiated with 5 μl of HMGCoAR enzyme (1:40 dilution of 0.65 mg/ml). After the enzyme was added, the solution was mixed for 20 seconds, and the reaction was run for 10 minutes. After a 50 second lag, the samples were read in a Cary spectrophotometer at 340 nm. Reading of the samples was continued until 300 seconds. Cuvette #1 contained the control reaction (no inhibitor), and cuvette #2 contained the positive control reaction in which Cibacron Blue at 2.05 μM was substituted for inhibitor to yield 50 to 70% inhibition. The substrate was kept at a level at least 10 times the Km.

[2] = system: inosine-5′-monophosphate dehydrogenase (IMPDH); assay: IMPDH kinetic assay, spectrophotometric reduction of NAD+ (340 nm); assay type: biochemical; conditions: for IC50: common ligand mimics, Examples 23/24
Method: For IMPDH analysis, the compounds were screened using a kinetic protocol that spectrophotometrically evaluates reduction of NAD+.
Stock solutions of each of the reagents were prepared in the following concentrations. Dilutions of the stock solutions were prepared prior to running the assay in the concentrations indicated below.
The IMPDH reaction was monitored at 340 nm prior to and after addition of the inhibitor to detect background reaction with the inhibitor. Solutions of 100 μl of the inhibitors in DMSO were prepared to provide a final DMSO concentration of 5% of the total assay volume. These solutions were incubated for 6 minutes at 37° C. in a 992 μl of a solution containing 0.1 M Tris-HCl, pH 8.0, 0.25 M KCl, 0.3% glycerol, 30 μM NAD+, and 600 μM IMP (inosine monophosphate). The reaction was then initiated with 8 μl of IMPDH (0.75 μg/ml). After the enzyme was added, the solution was mixed for 20 seconds, and the reaction was run for 10 minutes. After a 50 second lag, the samples were read in a Cary spectrophotometer at 340 nm. Reading of the samples was continued until 300 seconds. Cuvette #1 contained the control reaction (no inhibitor), and cuvette #2 contained the positive control reaction in which Cibacron Blue was substituted for inhibitor. The substrate was kept at a level at least 10 times the Km.

SMILES | inhibition of HMGCoAR (in words) ([1]; Example 24 (FIG. 6)) | inhibition of IMPDH (in words) ([2]; Example 24 (FIG. 6)) | IC50 [2] [µM] | IC50 [1] [µM]
COc1cc(O)ccc1C=C1SC(=N)NC1=O [5-(4-hydroxy-2-methoxy-benzylidene)-2-imino-thiazolidin-4-one] | no inhibition | no inhibition |  | 
N=C1NC(=O)C(=Cc2ccc(C(=O)O)cc2)S1 [4-(2-imino-4-oxo-thiazolidin-5-ylidenemethyl)-benzoic acid] |  |  | > 40 | 
COc1cc(C=C2SC(N)=NC2=O)ccc1O [5-(4-hydroxy-3-methoxy-benzylidene)-2-imino-thiazolidin-4-one] |  |  | > 100 | > 100
N=C1NC(=O)C(=Cc2ccc(O)c([N+](=O)[O-])c2)S1 [5-(4-hydroxy-3-nitro-benzylidene)-2-imino-thiazolidin-4-one] |  |  | > 75 | > 90
